# The NIST ThermoML archive (doi:10.1016/j.fluid.2006.09.001)
# Where “and” joins values, the source holds several entries; their conditions need not be identical. Equal entries are not always repeated. ± gives the expanded uncertainty stated by the source.
# Conditions: Liquid, Transpiration method
smiles,measurement,setting,value
COCCOc1ccccc1Br [1-bromo-2-(2-methoxyethoxy)benzene],vapor or sublimation pressure,302.4 K,0.0011 ± 6e-05 kPa
same,vapor or sublimation pressure,307.4 K,0.00174 ± 9e-05 kPa
same,vapor or sublimation pressure,312.4 K,0.00268 ± 0.00014 kPa
same,vapor or sublimation pressure,315 K,0.00321 ± 0.00017 kPa
same,vapor or sublimation pressure,317.5 K,0.00391 ± 0.0002 kPa
same,vapor or sublimation pressure,319.5 K,0.00453 ± 0.00024 kPa and 0.00475 ± 0.00025 kPa
same,vapor or sublimation pressure,322.6 K,0.0062 ± 0.00032 kPa
same,vapor or sublimation pressure,324.6 K,0.00691 ± 0.00036 kPa
same,vapor or sublimation pressure,327.6 K,0.00867 ± 0.00046 kPa
same,vapor or sublimation pressure,332.7 K,0.01255 ± 0.00066 kPa
same,vapor or sublimation pressure,337.8 K,0.01854 ± 0.00096 kPa
same,vapor or sublimation pressure,343 K,0.02628 ± 0.0014 kPa
same,vapor or sublimation pressure,348.1 K,0.03518 ± 0.0018 kPa
same,vapor or sublimation pressure,353.2 K,0.04763 ± 0.0024 kPa
same,vapor or sublimation pressure,356.3 K,0.05583 ± 0.0029 kPa
same,vapor or sublimation pressure,358.2 K,0.06719 ± 0.0035 kPa
same,vapor or sublimation pressure,360.7 K,0.07401 ± 0.0038 kPa
same,vapor or sublimation pressure,361.8 K,0.07914 ± 0.004 kPa
same,vapor or sublimation pressure,363.3 K,0.08516 ± 0.0044 kPa
same,vapor or sublimation pressure,366.8 K,0.1095 ± 0.0056 kPa
same,vapor or sublimation pressure,368.4 K,0.1199 ± 0.0061 kPa
COCCOCCOc1ccccc1Br [1-bromo-2-(2-(2-methoxyethoxy)ethoxy)benzene],vapor or sublimation pressure,310.4 K,9e-05 ± 1e-05 kPa
same,vapor or sublimation pressure,313.2 K,0.00012 ± 1e-05 kPa
same,vapor or sublimation pressure,317.4 K,0.00016 ± 1e-05 kPa
same,vapor or sublimation pressure,318.6 K,0.00019 ± 1e-05 kPa
same,vapor or sublimation pressure,320.3 K,0.00021 ± 1e-05 kPa
same,vapor or sublimation pressure,322.6 K,0.00026 ± 1e-05 kPa
same,vapor or sublimation pressure,324.3 K,0.0003 ± 2e-05 kPa
same,vapor or sublimation pressure,325.4 K,0.00036 ± 2e-05 kPa
same,vapor or sublimation pressure,327.6 K,0.00043 ± 2e-05 kPa
same,vapor or sublimation pressure,327.7 K,0.00043 ± 2e-05 kPa
same,vapor or sublimation pressure,328.3 K,0.00047 ± 2e-05 kPa and 0.00045 ± 2e-05 kPa
same,vapor or sublimation pressure,329 K,0.00045 ± 2e-05 kPa
same,vapor or sublimation pressure,332.4 K,0.00063 ± 3e-05 kPa
same,vapor or sublimation pressure,332.5 K,0.00062 ± 3e-05 kPa
same,vapor or sublimation pressure,332.7 K,0.00063 ± 3e-05 kPa
same,vapor or sublimation pressure,334.5 K,0.00076 ± 4e-05 kPa
same,vapor or sublimation pressure,335.4 K,0.00081 ± 4e-05 kPa
same,vapor or sublimation pressure,337.9 K,0.00096 ± 5e-05 kPa
same,vapor or sublimation pressure,339.1 K,0.00113 ± 6e-05 kPa
same,vapor or sublimation pressure,342 K,0.00135 ± 7e-05 kPa
same,vapor or sublimation pressure,343.5 K,0.00153 ± 8e-05 kPa
same,vapor or sublimation pressure,345 K,0.00167 ± 9e-05 kPa
same,vapor or sublimation pressure,346.5 K,0.00205 ± 0.00011 kPa
same,vapor or sublimation pressure,347.6 K,0.00219 ± 0.00011 kPa
same,vapor or sublimation pressure,348 K,0.0022 ± 0.00012 kPa
same,vapor or sublimation pressure,349.5 K,0.00252 ± 0.00013 kPa
same,vapor or sublimation pressure,350.1 K,0.00253 ± 0.00014 kPa
same,vapor or sublimation pressure,350.6 K,0.0028 ± 0.00018 kPa
same,vapor or sublimation pressure,353 K,0.00325 ± 0.00017 kPa
same,vapor or sublimation pressure,355.1 K,0.00383 ± 0.0002 kPa
same,vapor or sublimation pressure,356 K,0.0041 ± 0.00022 kPa
same,vapor or sublimation pressure,359.2 K,0.0052 ± 0.00027 kPa
same,vapor or sublimation pressure,360.3 K,0.00566 ± 0.0003 kPa
same,vapor or sublimation pressure,361.1 K,0.00611 ± 0.00032 kPa
same,vapor or sublimation pressure,363.3 K,0.007 ± 0.00037 kPa
same,vapor or sublimation pressure,365.2 K,0.00835 ± 0.00044 kPa
same,vapor or sublimation pressure,368.4 K,0.01027 ± 0.00053 kPa and 0.01025 ± 0.00053 kPa
same,vapor or sublimation pressure,370.8 K,0.01177 ± 0.00061 kPa
same,vapor or sublimation pressure,373.5 K,0.01407 ± 0.00072 kPa
COCCOCCOCCOc1ccccc1Br [1-bromo-2-(2-(2-(2-methoxyethoxy)ethoxy)ethoxy)benzene],vapor or sublimation pressure,333.2 K,6.1e-05 ± 3e-06 kPa
same,vapor or sublimation pressure,337.3 K,8.8e-05 ± 5e-06 kPa
same,vapor or sublimation pressure,339.3 K,0.000111 ± 6e-06 kPa
same,vapor or sublimation pressure,341.3 K,0.000132 ± 7e-06 kPa
same,vapor or sublimation pressure,343.4 K,0.000158 ± 8e-06 kPa
same,vapor or sublimation pressure,345.5 K,0.000188 ± 1e-05 kPa
same,vapor or sublimation pressure,347.5 K,0.000218 ± 1.2e-05 kPa
same,vapor or sublimation pressure,349.7 K,0.000272 ± 1.5e-05 kPa
same,vapor or sublimation pressure,351.7 K,0.000329 ± 1.7e-05 kPa
same,vapor or sublimation pressure,353.6 K,0.000382 ± 2e-05 kPa
same,vapor or sublimation pressure,355.7 K,0.000446 ± 2.4e-05 kPa
same,vapor or sublimation pressure,357.8 K,0.000555 ± 3e-05 kPa
same,vapor or sublimation pressure,359.8 K,0.000649 ± 3.4e-05 kPa
same,vapor or sublimation pressure,360.6 K,0.000704 ± 3.8e-05 kPa
same,vapor or sublimation pressure,362 K,0.000796 ± 4.1e-05 kPa
same,vapor or sublimation pressure,363 K,0.000826 ± 4.4e-05 kPa
same,vapor or sublimation pressure,365 K,0.000993 ± 5.3e-05 kPa
same,vapor or sublimation pressure,367.9 K,0.001244 ± 6.5e-05 kPa
same,vapor or sublimation pressure,369.9 K,0.001446 ± 7.5e-05 kPa
